According to ChEMBL document CHEMBL4373723 (J Med Chem, 2019):
Activity calls are given as the source filed them. The rule behind the calls is not given here. Bridge positions count the residues as written; N and C are the ends. Square brackets hold non-standard residues; d marks the D form. Peptide text beside a SMILES is read from it. I, II: the chains in the order shown. Phe(4-Cl) = N[C@@H](Cc1ccc(Cl)cc1)C(=O)O; Ala(cPent) = N[C@@H](CC1CCCC1)C(=O)O; tBuAla = CC(C)(C)C[C@H](N)C(=O)O; hLeu = CC(C)CC[C@H](N)C(=O)O; Nle = CCCC[C@H](N)C(=O)O

Columns and labels:
Frizzled-7 [1] = target: T1, Frizzled-7 (Homo sapiens, UniProt O75084); test: biochemical; assay type: cell-based, CHO
Frizzled-7 [2] = target: T1, Frizzled-7; conditions: CHO
Description: Binding affinity to recombinant human Frizzled-7 (Gln33 to Leu185 residues)/human IgG1 chimeric protein expressed in CHO cells assessed as association rate constant by SPR assay

Frizzled-7 [3] = target: T1, Frizzled-7; assay type: cell-based; conditions: cho

SMILES | Kd (Frizzled-7 [1]; cho) | Ka (Frizzled-7 [2]) | Kd (Frizzled-7 [3]) | Kd (Frizzled-7 [1]; read-out: Kd) [nM] | Kd (Frizzled-7 [1]; cho, read-out: Kd) [nM]
CSCC[C@H](NC(=O)[C@@H](NC(=O)[C@H](Cc1cnc[nH]1)NC(=O)[C@H](CO)NC(=O)[C@H](Cc1c[nH]c2ccccc12)NC(=O)[C@H](Cc1ccccc1)NC(=O)[C@H](CCC(=O)O)NC(=O)[C@H](CC(C)C)NC(=O)[C@H](CC(=O)O)NC(=O)[C@H](CC(=O)O)NC(=O)[C@H](CO)NC(=O)[C@@H]1CCCN1C(=O)[C@H](CC(C)C)NC(C)=O)C(C)C)C(=O)N[C@@H](Cc1ccc(O)cc1)C(N)=O (Ac-LPSDDLEFWSHVMY-NH2) | Not Active | inactive | Not Active |  | 
CCCC[C@H](NC(=O)[C@H](CC(=O)O)NC(=O)[C@H](CC(=O)O)NC(=O)[C@H](CO)NC(C)=O)C(=O)N[C@@H](CCC(=O)O)C(=O)N[C@@H](Cc1ccccc1)C(=O)N[C@@H](Cc1c[nH]c2ccccc12)C(=O)N[C@@H](CSSC[C@H](NC(=O)[C@H](Cc1c[nH]c2ccccc12)NC(=O)[C@H](Cc1ccccc1)NC(=O)[C@H](CCC(=O)O)NC(=O)[C@H](CCCC)NC(=O)[C@H](CC(=O)O)NC(=O)[C@H](CC(=O)O)NC(=O)[C@H](CO)NC(C)=O)C(=O)N[C@@H](Cc1cnc[nH]1)C(=O)N[C@H](C(=O)N[C@@H](CCSC)C(=O)N[C@@H](Cc1ccc(O)cc1)C(N)=O)C(C)C)C(=O)N[C@@H](Cc1cnc[nH]1)C(=O)N[C@H](C(=O)N[C@@H](CCSC)C(=O)N[C@@H](Cc1ccc(O)cc1)C(N)=O)C(C)C (I: Ac-SDD[Nle]EFWCHVMY-NH2 / II: Ac-SDD[Nle]EFWCHVMY-NH2; disulfide I:8-II:8) |  | 42.8 ×10⁵ /M/s | 23.1 ×10⁻³ /s | 5.4 | 
CSCC[C@H](NC(=O)[C@@H](NC(=O)[C@H](Cc1cnc[nH]1)NC(=O)[C@H](CSSC[C@H](NC(=O)[C@H](Cc1c[nH]c2ccccc12)NC(=O)[C@H](Cc1ccccc1)NC(=O)[C@H](CCC(=O)O)NC(=O)[C@H](CC(C)(C)C)NC(=O)[C@H](CC(=O)O)NC(=O)[C@H](CC(=O)O)NC(=O)[C@H](CO)NC(C)=O)C(=O)N[C@@H](Cc1cnc[nH]1)C(=O)N[C@H](C(=O)N[C@@H](CCSC)C(=O)N[C@@H](Cc1ccc(O)cc1)C(N)=O)C(C)C)NC(=O)[C@H](Cc1c[nH]c2ccccc12)NC(=O)[C@H](Cc1ccccc1)NC(=O)[C@H](CCC(=O)O)NC(=O)[C@H](CC(C)(C)C)NC(=O)[C@H](CC(=O)O)NC(=O)[C@H](CC(=O)O)NC(=O)[C@H](CO)NC(C)=O)C(C)C)C(=O)N[C@@H](Cc1ccc(O)cc1)C(N)=O (I: Ac-SDD[tBuAla]EFWCHVMY-NH2 / II: Ac-SDD[tBuAla]EFWCHVMY-NH2; disulfide I:8-II:8) |  | 44 ×10⁵ /M/s | 0.95 ×10⁻³ /s | 0.22 | 
CSCC[C@H](NC(=O)[C@@H](CC(C)(C)C)NC(=O)[C@H](Cc1cnc[nH]1)NC(=O)[C@H](CSSC[C@H](NC(=O)[C@H](Cc1c[nH]c2ccccc12)NC(=O)[C@H](Cc1ccccc1)NC(=O)[C@H](CCC(=O)O)NC(=O)[C@H](CC(C)C)NC(=O)[C@H](CC(=O)O)NC(=O)[C@H](CC(=O)O)NC(=O)[C@H](CO)NC(C)=O)C(=O)N[C@@H](Cc1cnc[nH]1)C(=O)N[C@H](CC(C)(C)C)C(=O)N[C@@H](CCSC)C(=O)N[C@@H](Cc1ccc(O)cc1)C(N)=O)NC(=O)[C@H](Cc1c[nH]c2ccccc12)NC(=O)[C@H](Cc1ccccc1)NC(=O)[C@H](CCC(=O)O)NC(=O)[C@H](CC(C)C)NC(=O)[C@H](CC(=O)O)NC(=O)[C@H](CC(=O)O)NC(=O)[C@H](CO)NC(C)=O)C(=O)N[C@@H](Cc1ccc(O)cc1)C(N)=O |  | 68.8 ×10⁵ /M/s | 2.16 ×10⁻³ /s |  | 0.32
CSCC[C@H](NC(=O)[C@@H](NC(=O)[C@H](Cc1cnc[nH]1)NC(=O)[C@H](CSSC[C@H](NC(=O)[C@H](Cc1c[nH]c2ccccc12)NC(=O)[C@H](Cc1ccccc1)NC(=O)[C@H](CCC(=O)O)NC(=O)[C@H](CC(C)C)NC(=O)[C@H](CC(=O)O)NC(=O)[C@H](CC(=O)O)NC(=O)[C@@H](NC(C)=O)[C@@H](C)O)C(=O)N[C@@H](Cc1cnc[nH]1)C(=O)N[C@H](C(=O)N[C@@H](CCSC)C(=O)N[C@@H](Cc1ccc(O)cc1)C(N)=O)C(C)C)NC(=O)[C@H](Cc1c[nH]c2ccccc12)NC(=O)[C@H](Cc1ccccc1)NC(=O)[C@H](CCC(=O)O)NC(=O)[C@H](CC(C)C)NC(=O)[C@H](CC(=O)O)NC(=O)[C@H](CC(=O)O)NC(=O)[C@@H](NC(C)=O)[C@@H](C)O)C(C)C)C(=O)N[C@@H](Cc1ccc(O)cc1)C(N)=O (I: Ac-TDDLEFWCHVMY-NH2 / II: Ac-TDDLEFWCHVMY-NH2; disulfide I:8-II:8) |  | 51.5 ×10⁵ /M/s | 0.72 ×10⁻³ /s | 0.14 | 
CSCC[C@H](NC(=O)[C@@H](NC(=O)[C@H](Cc1cnc[nH]1)NC(=O)[C@H](CSSC[C@H](NC(=O)[C@H](Cc1c[nH]c2ccccc12)NC(=O)[C@H](Cc1ccccc1)NC(=O)[C@H](CCC(=O)O)NC(=O)[C@H](CCC(C)C)NC(=O)[C@H](CC(=O)O)NC(=O)[C@H](CC(=O)O)NC(=O)[C@H](CO)NC(C)=O)C(=O)N[C@@H](Cc1cnc[nH]1)C(=O)N[C@H](C(=O)N[C@@H](CCSC)C(=O)N[C@@H](Cc1ccc(O)cc1)C(N)=O)C(C)C)NC(=O)[C@H](Cc1c[nH]c2ccccc12)NC(=O)[C@H](Cc1ccccc1)NC(=O)[C@H](CCC(=O)O)NC(=O)[C@H](CCC(C)C)NC(=O)[C@H](CC(=O)O)NC(=O)[C@H](CC(=O)O)NC(=O)[C@H](CO)NC(C)=O)C(C)C)C(=O)N[C@@H](Cc1ccc(O)cc1)C(N)=O (I: Ac-SDD[hLeu]EFWCHVMY-NH2 / II: Ac-SDD[hLeu]EFWCHVMY-NH2; disulfide I:8-II:8) |  | 10.9 ×10⁵ /M/s | 123.5 ×10⁻³ /s | 115 | 
CSCC[C@H](NC(=O)[C@@H](NC(=O)[C@H](Cc1cnc[nH]1)NC(=O)[C@H](CSSC[C@H](NC(=O)[C@H](Cc1c[nH]c2ccccc12)NC(=O)[C@H](Cc1ccc(Cl)cc1)NC(=O)[C@H](CCC(=O)O)NC(=O)[C@H](CC(C)C)NC(=O)[C@H](CC(=O)O)NC(=O)[C@H](CC(=O)O)NC(=O)[C@H](CO)NC(C)=O)C(=O)N[C@@H](Cc1cnc[nH]1)C(=O)N[C@H](C(=O)N[C@@H](CCSC)C(=O)N[C@@H](Cc1ccc(O)cc1)C(N)=O)C(C)C)NC(=O)[C@H](Cc1c[nH]c2ccccc12)NC(=O)[C@H](Cc1ccc(Cl)cc1)NC(=O)[C@H](CCC(=O)O)NC(=O)[C@H](CC(C)C)NC(=O)[C@H](CC(=O)O)NC(=O)[C@H](CC(=O)O)NC(=O)[C@H](CO)NC(C)=O)C(C)C)C(=O)N[C@@H](Cc1ccc(O)cc1)C(N)=O (I: Ac-SDDLE[Phe(4-Cl)]WCHVMY-NH2 / II: Ac-SDDLE[Phe(4-Cl)]WCHVMY-NH2; disulfide I:8-II:8) |  | 16.5 ×10⁵ /M/s | 1.71 ×10⁻³ /s | 1.04 | 
CSCC[C@H](NC(=O)[C@H](CC(C)C)NC(=O)[C@H](Cc1cnc[nH]1)NC(=O)[C@H](CSSC[C@H](NC(=O)[C@H](Cc1c[nH]c2ccccc12)NC(=O)[C@H](Cc1ccccc1)NC(=O)[C@H](CCC(=O)O)NC(=O)[C@H](CC(C)C)NC(=O)[C@H](CC(=O)O)NC(=O)[C@H](CC(=O)O)NC(=O)[C@H](CO)NC(C)=O)C(=O)N[C@@H](Cc1cnc[nH]1)C(=O)N[C@@H](CC(C)C)C(=O)N[C@@H](CCSC)C(=O)N[C@@H](Cc1ccc(O)cc1)C(N)=O)NC(=O)[C@H](Cc1c[nH]c2ccccc12)NC(=O)[C@H](Cc1ccccc1)NC(=O)[C@H](CCC(=O)O)NC(=O)[C@H](CC(C)C)NC(=O)[C@H](CC(=O)O)NC(=O)[C@H](CC(=O)O)NC(=O)[C@H](CO)NC(C)=O)C(=O)N[C@@H](Cc1ccc(O)cc1)C(N)=O (I: Ac-SDDLEFWCHLMY-NH2 / II: Ac-SDDLEFWCHLMY-NH2; disulfide I:8-II:8) |  | 67.2 ×10⁵ /M/s | 1.9 ×10⁻³ /s | 0.28 | 
CSCC[C@H](NC(=O)[C@@H](NC(=O)[C@H](Cc1cnc[nH]1)NC(=O)[C@H](CSSC[C@H](NC(=O)[C@H](Cc1c[nH]c2ccccc12)NC(=O)[C@H](Cc1ccccc1)NC(=O)[C@H](CCC(=O)O)NC(=O)[C@H](CC1CCCC1)NC(=O)[C@H](CC(=O)O)NC(=O)[C@H](CC(=O)O)NC(=O)[C@H](CO)NC(C)=O)C(=O)N[C@@H](Cc1cnc[nH]1)C(=O)N[C@H](C(=O)N[C@@H](CCSC)C(=O)N[C@@H](Cc1ccc(O)cc1)C(N)=O)C(C)C)NC(=O)[C@H](Cc1c[nH]c2ccccc12)NC(=O)[C@H](Cc1ccccc1)NC(=O)[C@H](CCC(=O)O)NC(=O)[C@H](CC1CCCC1)NC(=O)[C@H](CC(=O)O)NC(=O)[C@H](CC(=O)O)NC(=O)[C@H](CO)NC(C)=O)C(C)C)C(=O)N[C@@H](Cc1ccc(O)cc1)C(N)=O (I: Ac-SDD[Ala(cPent)]EFWCHVMY-NH2 / II: Ac-SDD[Ala(cPent)]EFWCHVMY-NH2; disulfide I:8-II:8) |  | 46.5 ×10⁵ /M/s | 9.9 ×10⁻³ /s | 2.1 | 
CSCC[C@H](NC(=O)[C@@H](NC(=O)[C@H](Cc1cnc[nH]1)NC(=O)[C@H](CSSC[C@H](NC(=O)[C@H](Cc1c[nH]c2ccccc12)NC(=O)[C@H](Cc1ccccc1)NC(=O)[C@H](CCC(=O)O)NC(=O)[C@H](CC(C)C)NC(=O)[C@H](CC(=O)O)NC(=O)[C@H](CC(=O)O)NC(=O)[C@H](CO)NC(C)=O)C(=O)N[C@@H](Cc1cnc[nH]1)C(=O)N[C@H](C(=O)N[C@@H](CCSC)C(=O)N[C@@H](Cc1ccc(Cl)cc1)C(N)=O)C(C)C)NC(=O)[C@H](Cc1c[nH]c2ccccc12)NC(=O)[C@H](Cc1ccccc1)NC(=O)[C@H](CCC(=O)O)NC(=O)[C@H](CC(C)C)NC(=O)[C@H](CC(=O)O)NC(=O)[C@H](CC(=O)O)NC(=O)[C@H](CO)NC(C)=O)C(C)C)C(=O)N[C@@H](Cc1ccc(Cl)cc1)C(N)=O (I: Ac-SDDLEFWCHVM[Phe(4-Cl)]-NH2 / II: Ac-SDDLEFWCHVM[Phe(4-Cl)]-NH2; disulfide I:8-II:8) |  | 9.3 ×10⁵ /M/s | 0.82 ×10⁻³ /s | 0.88 | 
